In brackets after ≈: the same amount, converted by molar mass.
Legend:
[1] = in vitro; conditions: human, hepatocytes
[2] = physchem; conditions: octan-1-ol/water, pH 7.4, LogD7.4
[3] = physchem; conditions: pH 7.4 buffer
[4] = in vitro; conditions: human, plasma, PPB
[5] = in vitro; conditions: SD, HW or BN, rat, plasma
[6] = in vitro; conditions: human
[7] = in vitro; conditions: hepatocytes

| hepatocyte CLint [1] [µL/min/1e6 cells] | logD [2] | fraction unbound at 5 h [4] | fraction unbound at 5 h [5] | hepatocyte CLint [7] [µL/min/1e6 cells] | SMILES | other results |
| --- | --- | --- | --- | --- | --- | --- |
| 17.4 |  |  |  |  | O=C(O)CC[C@@H](Cc1ccc(OCc2ccccc2)cc1)NC(=O)CCCCCCc1ccccc1 |  |
| 12.9 |  |  |  |  | Clc1ccc(Cn2c(-c3nn[nH]n3)cc3ccccc32)cc1Cl |  |
| 46.8 |  |  |  |  | Nc1c(-c2ccccc2)nc(Cl)nc1-c1ccccc1 |  |
| 15.5 |  |  |  |  | O=C(O)C1CSC(c2ccccc2Cl)N1C(=O)c1ccc(Cl)cc1 (centres undefined) |  |
| 36.3 |  |  |  |  | Cc1cc(C)nc(Nc2cccc(C(F)(F)F)c2)n1 |  |
| 43.6 |  |  |  |  | COCCOc1cc(-c2cccc3c(=O)cc(N4CCOCC4)oc23)ccc1NC(=O)CN1CCOCC1 |  |
| 5.5 |  |  |  |  | O=C(CN1CCOCC1)Nc1ccc(-c2cccc3c(=O)cc(N4CCOCC4)oc23)cc1OCCN1CCCC1 |  |
| 4.88 |  |  |  |  | COc1ncccc1-c1cccc2c(N)c3c(nc12)CN(C1CCC1)C3=O |  |
|  | 1.79 | 0.142 | 0.114 | 38 | O=C1NC(=O)C(c2cnc3ccccn23)=C1c1cn2c3c(cccc13)CN(C(=O)N1CCOCC1)CC2 | solubility thermodynamic [3]: 0.6 µM (≈ 0.298 µg/mL); microsomal CLint ([6]; liver microsomes): 42 µL/min/mg |
| 12.6 |  |  |  |  | COc1cc(N2CCN(C(=O)[C@@H](C)O)CC2)ccc1Nc1ncc(Cl)c(-c2cnc3ccccn23)n1 |  |
|  | 2.62 | 0.062 | 0.0488 | 6 | Cc1ccc(N2CC(COc3ccc(-c4noc(C)n4)cc3)C2)nn1 | solubility thermodynamic [3]: 129 µM (≈ 43.5 µg/mL); microsomal CLint ([6]; microsomes): 26.3 µL/min/mg |
|  | 1.68 | 0.0014 | 0.0214 | 12 | Cc1ccc(S(=O)(=O)Nc2c(C(=O)NC3CCCCC3)c(C)nn2-c2ccccc2)cc1 | solubility thermodynamic [3]: 1410 µM (≈ 639 µg/mL); microsomal CLint ([6]; liver microsomes): 38 µL/min/mg |
|  | 1.46 | 0.0082 | 0.0335 | 18 | Cc1ccc(S(=O)(=O)Nc2c(C(=O)NCC(C)(C)C)c(C)nn2-c2ccccc2)cc1 | microsomal CLint ([6]; microsomes): 27 µL/min/mg |
|  | 0.66 | 0.0059 | 0.0335 | 17.3 | CCC(C)NC(=O)c1c(C)nn(-c2ccccc2)c1NS(=O)(=O)c1ccc(C)cc1 (centres undefined) | microsomal CLint ([6]; microsomes): 15.7 µL/min/mg |
|  | 1.21 | 0.0127 | 0.0457 | 7 | Cc1ccc(S(=O)(=O)Nc2c(C(=O)NC(C)C(C)(C)C)c(C)nn2-c2ccccc2)cc1 (centres undefined) | microsomal CLint ([6]; liver microsomes): 31 µL/min/mg |
|  | 1.2 | 0.0081 | 0.0374 | 8 | Cc1ccc(S(=O)(=O)Nc2c(C(=O)N[C@H](C)C(C)(C)C)c(C)nn2-c2ccccc2)cc1 | solubility thermodynamic [3]: 1000 µM (≈ 455 µg/mL); microsomal CLint ([6]; liver microsomes): 42 µL/min/mg |

| hepatocyte CLint [1] [µL/min/1e6 cells] | logD [2] | fraction unbound at 5 h [4] | fraction unbound at 5 h [5] | hepatocyte CLint [7] [µL/min/1e6 cells] | SMILES | other results |
| --- | --- | --- | --- | --- | --- | --- |
|  | 0.93 | 0.0142 | 0.0274 | 18 | Cc1ccc(S(=O)(=O)Nc2c(C(=O)N[C@@H](C)C(C)(C)C)c(C)nn2CC(F)(F)F)cc1 | microsomal CLint ([6]; liver microsomes): 17 µL/min/mg |
|  | 0.61 | 0.0836 | 0.139 | < 3 | COCC(C)n1nc(C)c(C(=O)N[C@@H](C)C(C)(C)C)c1NS(=O)(=O)c1ccc(C)cc1 (some centres undefined) | microsomal CLint ([6]; liver microsomes): 6 µL/min/mg |
|  | 1.29 | 0.0532 | 0.0661 | 5 | Cc1ccc(S(=O)(=O)Nc2c(C(=O)N[C@@H](C)C(C)(C)C)c(C)nn2C2CCSCC2)cc1 | solubility thermodynamic [3]: 912 µM (≈ 437 µg/mL); microsomal CLint ([6]; liver microsomes): 25 µL/min/mg |
| 38.9 |  |  |  |  | O=C(O)C1(c2ccc(-c3ccc(Cl)c(Cl)c3)c(F)c2)CC1 |  |
|  | 0.4 | 0.511 | 0.454 | 24 | CCC[C@@H](CNC(=O)c1nc(Cl)c(N)nc1N)[N+](C)(C)CCCc1ccc(OC)cc1 | microsomal CLint ([6]; microsomes): 87.1 µL/min/mg |
| < 3 |  |  |  |  | NC1(c2ccc(-c3ncc4cccn4c3-c3ccccc3)cc2)CCC1 |  |
| > 150 |  |  |  |  | NC1(c2ccc(-c3ncc4cnccc4c3-c3ccccc3)cc2)CCC1 |  |
| 19.5 |  |  |  |  | NC1(c2ccc(-c3ncc4cccnc4c3-c3ccccc3)cc2)CCC1 |  |
| 10.2 |  |  |  |  | NC1(c2ccc(-c3c(-c4ccccc4)ccc4ccnn34)cc2)CCC1 |  |
| < 3 |  |  |  |  | NC1(c2ccc(-c3c(-c4ccccc4)ccn4ncnc34)cc2)CCC1 |  |
| 3.31 |  |  |  |  | Cn1cnc2c(-c3ccc(C4(N)CCC4)cc3)c(-c3ccccc3)ccc21 |  |
| 52.5 |  |  |  |  | Cc1ccc(-c2cccc(-c3nn[nH]n3)c2)cc1 |  |
| 10.5 |  |  |  |  | O=C1NC(=O)C(=CC=Cc2ccccc2)S1 |  |
|  | 3.8 | 0.0321 | 0.0046 | 52.5 | C[C@]12Cc3cnn(-c4ccc(F)cc4)c3C=C1CC[C@@]2(O)CCc1ccc(F)cc1C(N)=O | microsomal CLint ([6]; microsomes): 105 µL/min/mg |
| < 3 |  |  |  |  | Nc1ncc(-c2ccc(S(=O)(=O)N3CCCC3)cc2)nc1C(=O)Nc1cccnc1 |  |

| SMILES | hepatocyte CLint [1] [µL/min/1e6 cells] | logD [2] | fraction unbound at 5 h [4] | fraction unbound at 5 h [5] | hepatocyte CLint [7] [µL/min/1e6 cells] | other results |
| --- | --- | --- | --- | --- | --- | --- |
| COCCC(C)n1nc(C)c(C(=O)N[C@@H](C)C(C)(C)C)c1NS(=O)(=O)c1ccc(C)cc1 (some centres undefined) |  | 0.78 | 0.101 | 0.276 | 9.9 | microsomal CLint ([6]; microsomes): 3.9 µL/min/mg |
